Patent EP0509845A1, “(+) and (-) enantiomers of 5-aliphatic-6-(benzoxazinyl- or benzothiazinyl)-2,3,4,5-tetrahydropyridazin-3-ones” (ORTHO PHARMACEUTICAL CORPORATION, priority 1991, dated 1992)
Read-outs that look alike come from different tables or passages of the source. Each block holds one compound with its values, some of them ahead of it.

Columns and labels:
adult mongrel dogs [1] = experiment: Cardiotonic activity, racemate testing in anesthetized dogs; format: in vivo
Experimental: The cardiotonic activity of the compounds was determined in accordance with the method of Alousi, A. A., et al., J. Cir. Res., 45, 666 (l979). Basically, adult mongrel dogs were anesthetized with sodium pentobarbital and artifically respired. Arterial pressure was recorded via a femoral artery and the pressure pulse used to trigger a cardiotachometer for heart rate. Left ventricular pressure was measured with a Millar catheter and dP/dt was derived. Cardiac output was determined by measuring ascending aortic blood flow with an electromagnetic flow probe and myocardial contractile force was measured with a Walton Brodie strain gauge sutured to the right ventricle. Lead II EKG was also recorded. A standard dose of dopamine was administered to assess myocardial responsiveness. Test compounds were administered by i.v. infusion or bolus administration and the effects on cardiovascular parameters were determined. Dose-related effects of the test compound on BP, HR, dP/dt max., C.F. and C.O. were compared to pretreatment control values and expressed as a percentage change.

adult mongrel dogs [2] = experiment: Comparative racemate and enantiomer hemodynamic testing in pentobarbital anesthetized open-chest dogs; format: in vivo; settings: dogs
Experimental: Adult mongrel dogs weighing approximately l0-l4 kg were anesthetized with sodium pentobarbital (35 mg/kg, i.p.) and artificially respired. A femoral artery was cannulated to measure mean arterial pressure (MAP) and a femoral vein was cannulated for administering compounds. A Millar microtip pressure transducer was placed in the left ventricle via the left carotid artery to measure left ventricular end diastolic pressure (EDP). pressure pulses triggered a cardiotachometer for determination of heart rate (HR) while the left ventricular pressure waveform was differentiated using a Gould differentiating amplifier to yield dP/dtmax, an index of contractility. A right thoractomy was performed at the fourth intercostal space and the pericardial sac was opened. An externally calibrated Walton-Brodie strain gauge arch was sutured to the right ventricular free wall and stretched to produce a baseline force of approximately l00g. Subsequent changes in right ventricular contractile force (CF) were measured from this baseline. A Carolina electromagnetic flow probe was placed on the ascending aorta to estimate cardiac output (CO). A flexible fluid-filled catheter was inserted into the tip of the right atrium to measure right atrial pressure (RAP). Needle electrodes were placed in the appropriate limbs to record a lead II electrocardiogram (ECG). The following formulas were used to calculate derived parameters: Stroke volume (SV) = CO/HR x l000 Stroke work (SW) = ([…]) x SV Total peripheral resistance (TPR) = (MAP-EDP)/CO
Following surgery and stabilization of hemodynamic parameters, an i.v. infusion of dopamine (l0-l5 µg/kg/min for 3 min) was administered with a Harvard infusion pump to assess responsiveness to positive inotropic stimulation. Baseline hemodynamic values were obtained immediately prior to drug infusion. Responses were continuously monitored on a recorder (Gould 2800) and data collection was facilitated by the use of a Buxco cardiovascular analyzer and data logger.
In the comparative testing a stock solution of each enantiomer (l mg/ml) was prepared fresh daily and diluted before use. Compounds were dissolved in a small volume of dimethylformamide (DMF) and diluted with saline for a final concentration of l5% DMF. Further dilutions were made with a l5% DMF solution.
In the comparative testing each compound was administered in cumulative doses to separate dogs. Data were obtained at the end of each dose. (±) Bemoradan and (+) Bemordan were infused at cumulative doses of 5, l5, 35 and 75 µg/kg, administered with a Harvard infusion pump for 5 minutes each at rates of 0.56, l.l, 2.2, and […], respectively. (-) Bemoradan was given at doses of 5, l5 and 35 µg/kg following the same protocol. The high dose of the (-) isomer was not administered as a means of conserving compound.
Hemodynamic results were expressed as the percent change from pre-drug baseline values and compared using a Dunnett's test with a criterion for significance of p < 0.05. Contractile force ED₄₀ values (i.e., the dose which increased contractile force by 40%) were calculated from dose-response regression lines.

[3] = molecular target: T1, canine cardiac cyclic nucleotide phosphodiesterase (PDE) fraction III (Canis lupus familiaris, UniProt A0A8I3NYE0); experiment: Cyclic AMP phosphodiesterase assay with fraction III isoenzyme, comparative testing; format: biochemical
T1 construct: The fraction III isoenzyme was pooled and dialyzed; from tissue; host or cells: canine heart, soluble supernatant, DEAE cellulose fraction III (800 mM sodium acetate eluate)
T1 sequence (A0A8I3NYE0 1-1135): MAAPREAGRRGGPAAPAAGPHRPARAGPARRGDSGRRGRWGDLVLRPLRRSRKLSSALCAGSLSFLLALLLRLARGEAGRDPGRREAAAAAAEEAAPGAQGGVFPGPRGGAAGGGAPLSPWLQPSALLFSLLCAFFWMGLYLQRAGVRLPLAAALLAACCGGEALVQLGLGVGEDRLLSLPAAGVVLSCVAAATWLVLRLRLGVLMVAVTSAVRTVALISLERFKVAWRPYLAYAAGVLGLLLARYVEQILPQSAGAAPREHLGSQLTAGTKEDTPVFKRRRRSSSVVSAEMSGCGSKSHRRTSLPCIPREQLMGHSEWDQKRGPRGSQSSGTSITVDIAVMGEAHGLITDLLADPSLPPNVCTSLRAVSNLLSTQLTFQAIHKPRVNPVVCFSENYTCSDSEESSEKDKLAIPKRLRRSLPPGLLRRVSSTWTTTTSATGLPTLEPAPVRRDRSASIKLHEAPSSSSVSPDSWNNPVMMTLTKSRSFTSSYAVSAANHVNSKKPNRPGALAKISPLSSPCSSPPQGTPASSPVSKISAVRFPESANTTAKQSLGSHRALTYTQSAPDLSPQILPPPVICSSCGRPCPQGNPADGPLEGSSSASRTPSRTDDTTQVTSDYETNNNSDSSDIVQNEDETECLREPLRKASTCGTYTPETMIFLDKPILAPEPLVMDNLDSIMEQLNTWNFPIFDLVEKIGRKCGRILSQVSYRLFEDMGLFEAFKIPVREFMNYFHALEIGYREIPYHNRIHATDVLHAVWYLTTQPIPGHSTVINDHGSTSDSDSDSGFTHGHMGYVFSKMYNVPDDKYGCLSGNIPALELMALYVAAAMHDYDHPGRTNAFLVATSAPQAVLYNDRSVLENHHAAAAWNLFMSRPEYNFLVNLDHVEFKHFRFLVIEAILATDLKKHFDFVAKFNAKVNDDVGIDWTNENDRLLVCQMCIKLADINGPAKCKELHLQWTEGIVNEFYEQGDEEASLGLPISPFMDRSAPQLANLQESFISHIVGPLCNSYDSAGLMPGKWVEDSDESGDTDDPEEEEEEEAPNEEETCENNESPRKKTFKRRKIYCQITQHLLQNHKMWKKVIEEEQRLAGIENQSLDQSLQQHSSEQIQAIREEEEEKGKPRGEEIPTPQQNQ

[4] = tested on: human platelet aggregation; experiment: Platelet aggregation in vitro in platelet rich plasma; format: cell-based; settings: Homo sapiens, Platelet, human PRP
Experimental: The racemate and enantiomeric Bemoradan were tested for their effects in vitro on human platelet aggregation. Platelet rich plasma (PRP) was prepared from human donors who were free of aspirin for the preceding week. Venous blood was collected in sodium citrate vacutainer tubes and PRP was obtained by centrifuging the blood at l000 rpm for 5 min. Compounds were dissolved in methanol and added to 480 µl of PRP in a Chrono-log dual channel aggregometer l min prior to aggregant. Serotonin at 5 µM or ADP at 2 µM were the aggregating agents.

[5] = molecular target: T2, cyclic nucleotide phosphodiesterase (Canis lupus familiaris, UniProt A0A8I3NYE0); experiment: Phosphodiesterase inhibitory activity, racemate testing; format: biochemical; settings: read-out: IC50 (Micromolar concentration for 50% inhibition of cyclic nucleotide activity); cyclic AMP as substrate, Tris-Cl buffer pH 7.4
T2 sequence (A0A8I3NYE0 1-1135): T1 sequence (A0A8I3NYE0 1-1135)

Compound: 6-(3,4-Dihydro-3-oxo-l,4[2H]-benzothiazin-7-yl)-2,3,4,5-tetrahydro-5-methylpyridazin-3-one [Example 56]
- CF (Percent increase in cardiac force) (adult mongrel dogs [1]; I.V. dose 0.027 mpk): 32%

Compound: CC1CC(=O)NN=C1c1ccc2c(c1)OCC(=O)N2 (racemic) [Example 46, 6-(3,4-Dihydro-3-oxo-l,4(2H)-benzoxazin-7-yl)-2,3,4,5-tetrahydro-5-methylpyridazin-3-one]
- ED40 (adult mongrel dogs [2]; Canis lupus familiaris, iv, Table I summary, dose increasing contractile force by 40%, i.v., read-out: In vivo inotropic ED40, i.v.): 4.4 µg/kg
- CF ED40 (µg/kg) with 95% F.L. (adult mongrel dogs [2]; dose causing a 40% increase in contractility above baseline, from dose-response regression lines, i.v. infusion): 4.4 (3.9 - 4.9) µg/kg
- IC50 ([3]; Table I summary, canine cardiac PDE fraction III, read-out: PDE III inhibition (IC50)): 710 nM
- IC50 ([3]; canine heart fraction III, 0.1 µM cyclic AMP, read-out: PDE III IC50): 710 nM
- IC50 ([4]; ADP at 2 µM, read-out: Antiaggregatory IC50 (µM) vs. ADP): 0.65 µM
- IC50 ([4]; Serotonin at 5 µM, read-out: Antiaggregatory IC50 (µM) vs. 5-HT): 0.4 µM
- IC50 ([4]; Table I summary, ADP at 2 µM as aggregant, read-out: Platelet aggregation (IC50) vs. ADP): 0.65 µM
- IC50 ([4]; Table I summary, serotonin at 5 µM as aggregant, read-out: Platelet aggregation (IC50) vs. 5-HT (serotonin)): 0.4 µM

Continued, in another order:

- IC50 [5]: 25000 nM
Compound: COC(=O)CC(C)C(=O)c1ccc2c(c1)SCC(=O)N2C (stereo not drawn) [Example 53, Methyl 4-(3,4-dihydro-4-methyl-3-oxo-l,4[2H]-benzothiazin-7-yl)-3-methyl-4-oxobutyrate]
- CF (Percent increase in cardiac force) (adult mongrel dogs [1]; I.V. dose 0.075 mpk): 21%

- IC50 [5]: 22000 nM
Compound: O=C1CCC(c2ccc3c(c2)NC(=O)CS3)=NN1 [Example 54, 6-(3,4-Dihydro-3-oxo-l,4[2H]-benzothiazin-6-yl)-2,3,4,5-tetrahydropyridazin-3-one]
- CF (Percent increase in cardiac force) (adult mongrel dogs [1]; I.V. dose 0.075 mpk): 11%

- IC50 [5]: < 100 nM
Compound: CN1C(=O)CSc2ccc(C3=NNC(=O)CC3)cc21 [Example 55, 6-(3,4-Dihydro-4-methyl-3-oxo-l,4[2H]-benzothiazin-6-yl)-2,3,4,5-tetrahydropyridazin-3-one]
- CF (Percent increase in cardiac force) (adult mongrel dogs [1]; I.V. dose 0.035 mpk): 160%
